Assay results: the supplement of paper PMC11061612

Tests used:
Experiment in all cases: combination Emax (second highest fraction inhibited in the dose matrix, 72 h); higher = more inhibition; extreme values may be limits of the assay
HCC70 (Breast Carcinoma) = system: HCC70 (Breast Carcinoma)
Summary of the method: (§1)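 Bliss excess equals the observed combination effect minus the expected value EA + EB − EA·EB, where EA and EB are the effects of each agent alone. Combination Emax is the second-highest inhibition within the matrix. Inhibition was scaled from CellTiter-Glo 2.0 luminescence, with 0 set by vehicle wells and 1 by blank wells, after 72 hours of two-drug dosing of cells plated in 1536-well plates.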

[1] = system: NCI-H1651 (Lung Adenocarcinoma)
Summary of the method: as §1

EB2 (Burkitt's Lymphoma) = system: EB2 (Burkitt's Lymphoma)
Summary of the method: as §1

IM-9 (Non-Cancerous) = system: IM-9 (Non-Cancerous)
Summary of the method: as §1

[2] = system: 22RV1 (Prostate Carcinoma)
Summary of the method: as §1

[3] = system: NCI-H441 (Lung Adenocarcinoma)
Summary of the method: as §1

WM1552C (Melanoma) = system: WM1552C (Melanoma)
Summary of the method: as §1

[4] = system: CGTH-W-1 (Thyroid Gland Carcinoma)
Summary of the method: as §1

EW-7 (Ewing's Sarcoma) = system: EW-7 (Ewing's Sarcoma)
Summary of the method: as §1

769-P (Kidney Carcinoma) = system: 769-P (Kidney Carcinoma)
Summary of the method: as §1

[5] = system: MHH-ES-1 (Ewing's Sarcoma)
Summary of the method: as §1

[6] = system: SW620 (Colorectal Carcinoma)
Summary of the method: as §1

[7] = system: A2780 (Ovarian Carcinoma)
Summary of the method: as §1

[8] = system: LU-165 (Small Cell Lung Carcinoma)
Summary of the method: as §1

[9] = system: JHH-2 (Hepatocellular Carcinoma)
Summary of the method: as §1

[10] = system: NCI-H2087 (Lung Adenocarcinoma)
Summary of the method: as §1

[11] = system: HCC1395 (Breast Carcinoma)
Summary of the method: as §1

[12] = system: JHU-022 (Oral Cavity Carcinoma)
Summary of the method: as §1

[13] = system: NCI-H1703 (Squamous Cell Lung Carcinoma)
Summary of the method: as §1

[14] = system: SK-HEP-1 (Hepatocellular Carcinoma)
Summary of the method: as §1

COc1cc2c(cc1OCCCCCOc1cc3c(cc1OC)C(=O)N1C=C(C)C[C@H]1C=N3)N=C[C@@H]1CC(C)=CN1C2=O [SG3199] + O=C(c1cc(Cc2n[nH]c(=O)c3ccccc23)ccc1F)N1CCN(C(=O)C2CC2)CC1 [Olaparib] (first compound max 0.001 µM, 7x7, partner max 10 µM)
combination Emax (HCC70 (Breast Carcinoma)): 0.129 | combination Emax [1]: 0.274 | combination Emax (EB2 (Burkitt's Lymphoma)): 0.278 | combination Emax (IM-9 (Non-Cancerous)): 0.38 | combination Emax [2]: 0.095 | combination Emax [3]: 0.131 | combination Emax (WM1552C (Melanoma)): 0.178 | combination Emax [4]: 0.168 | combination Emax (EW-7 (Ewing's Sarcoma)): 0.303 | combination Emax (769-P (Kidney Carcinoma)): 0.174 | combination Emax [5]: 0.703 | combination Emax [6]: 0.144 | combination Emax [7]: 0.422 | combination Emax [8]: 0.0933 | combination Emax [9]: 0.192 | combination Emax [10]: 0.106 | combination Emax [11]: 0.181 | combination Emax [12]: 0.0543 | combination Emax [13]: 0.0514 | combination Emax [14]: 0.21

Cc1cc2ncnn2cc1Nc1ncc2c(n1)n(C1CCOCC1)c(=O)n2C [AZD7648] + C=CCn1c(=O)c2cnc(Nc3ccc(N4CCN(C)CC4)cc3)nc2n1-c1cccc(C(C)(C)O)n1 [AZD1775] (first compound max 10 µM, partner max 1 µM)
combination Emax (HCC70 (Breast Carcinoma)): 0.559 | combination Emax [1]: 0.631 | combination Emax (EB2 (Burkitt's Lymphoma)): 0.819 | combination Emax (IM-9 (Non-Cancerous)): 0.996 | combination Emax [2]: 0.46 | combination Emax [3]: 0.444 | combination Emax (WM1552C (Melanoma)): 0.551 | combination Emax [4]: 0.265 | combination Emax (EW-7 (Ewing's Sarcoma)): 0.898 | combination Emax (769-P (Kidney Carcinoma)): 0.829 | combination Emax [5]: 0.686 | combination Emax [6]: 0.526 | combination Emax [7]: 0.827 | combination Emax [8]: 0.419 | combination Emax [9]: 0.7 | combination Emax [10]: 0.353 | combination Emax [11]: 0.594 | combination Emax [12]: 0.497 | combination Emax [13]: 0.962 | combination Emax [14]: 0.513

C[C@@H](c1ccc2nccn2c1)n1nnc2ncc(-c3cnn(C)c3)nc21 [Savolitinib] + CC1(C)CCC(CN2CCN(c3ccc(C(=O)NS(=O)(=O)c4ccc(NCC5CCOCC5)c([N+](=O)[O-])c4)c(Oc4cnc5[nH]ccc5c4)c3)CC2)=C(c2ccc(Cl)cc2)C1 [Venetoclax] (first compound max 1 µM, 7x7, partner max 1 µM)
combination Emax (HCC70 (Breast Carcinoma)): 0.165 | combination Emax [1]: 0.186 | combination Emax (EB2 (Burkitt's Lymphoma)): 0.153 | combination Emax (IM-9 (Non-Cancerous)): 0.385 | combination Emax [2]: 0.214 | combination Emax [3]: 0.171 | combination Emax (WM1552C (Melanoma)): 0.0794 | combination Emax [4]: 0.0942 | combination Emax (EW-7 (Ewing's Sarcoma)): 0.118 | combination Emax (769-P (Kidney Carcinoma)): 0.0824 | combination Emax [5]: 0.185 | combination Emax [6]: 0.124 | combination Emax [7]: 0.14 | combination Emax [8]: 0.221 | combination Emax [9]: 0.0863 | combination Emax [10]: 0.184 | combination Emax [11]: 0.247 | combination Emax [12]: 0.257 | combination Emax [13]: 0.139 | combination Emax [14]: 0.164

Cc1cc2ncnn2cc1Nc1ncc2c(n1)n(C1CCOCC1)c(=O)n2C [AZD7648] + C[C@@H]1COCCN1C2=NC(=NC(=C2)C3(CC3)[S@](=N)(=O)C)C4=C5C=CNC5=NC=C4 [AZD6738] (first compound max 10 µM, 7x7, partner max 10 µM)
combination Emax (HCC70 (Breast Carcinoma)): 0.764 | combination Emax [1]: 0.536 | combination Emax (EB2 (Burkitt's Lymphoma)): 0.803 | combination Emax (IM-9 (Non-Cancerous)): 0.964 | combination Emax [2]: 0.518 | combination Emax [3]: 0.478 | combination Emax (WM1552C (Melanoma)): 0.633 | combination Emax [4]: 0.317 | combination Emax (EW-7 (Ewing's Sarcoma)): 0.924 | combination Emax (769-P (Kidney Carcinoma)): 0.819 | combination Emax [5]: 0.565 | combination Emax [6]: 0.437 | combination Emax [7]: 0.806 | combination Emax [8]: 0.317 | combination Emax [9]: 0.736 | combination Emax [10]: 0.583 | combination Emax [11]: 0.748 | combination Emax [12]: 0.578 | combination Emax [13]: 0.901 | combination Emax [14]: 0.382

Cc1cc2ncnn2cc1Nc1ncc2c(n1)n(C1CCOCC1)c(=O)n2C [AZD7648] + O=C(c1cc(Cc2n[nH]c(=O)c3ccccc23)ccc1F)N1CCN(C(=O)C2CC2)CC1 [Olaparib] (first compound max 10 µM, 7x7, partner max 10 µM)
combination Emax (HCC70 (Breast Carcinoma)): 0.178 | combination Emax [1]: 0.263 | combination Emax (EB2 (Burkitt's Lymphoma)): 0.526 | combination Emax (IM-9 (Non-Cancerous)): 0.51 | combination Emax [2]: 0.346 | combination Emax [3]: 0.163 | combination Emax (WM1552C (Melanoma)): 0.117 | combination Emax [4]: 0.122 | combination Emax (EW-7 (Ewing's Sarcoma)): 0.536 | combination Emax (769-P (Kidney Carcinoma)): 0.232 | combination Emax [5]: 0.801 | combination Emax [6]: 0.159 | combination Emax [7]: 0.576 | combination Emax [8]: 0.143 | combination Emax [9]: 0.473 | combination Emax [10]: 0.135 | combination Emax [11]: 0.4 | combination Emax [12]: 0.172 | combination Emax [13]: 0.417 | combination Emax [14]: 0.242
